Assay results: article PMC7782793, “Hydroxamic acid-modified peptide microarrays for profiling isozyme-selective interactions and inhibition of histone deacetylases” (Nature Communications, 2021)
“And” between values parts separate entries of the source, which are not always exact repeats. Equal values may be shown once. Marks after values point to notes of the source that are not given here. Non-standard residues stand in square brackets, D forms with d. Residues, ends and D or L forms follow the SMILES beside them. *: point of attachment. Asu = N[C@@H](CCCCCC(=O)O)C(=O)O; NHOH = ON*

What was measured:
[1] = molecular target: T1, HDAC2 (Homo sapiens, UniProt Q92769); experiment: HDAC inhibition assay (fluorogenic, Ac-Leu-Gly-Lys(Ac)-AMC); assay type: biochemical; settings: for HDAC2 dose-response data (relative enzyme activity), Fig. 6 + S. Fig. 10: duplicate columns
T1 construct: HDAC2 (full length, C-terminal His tag, BPS Bioscience, cat. #: 50002); purchased BPS Bioscience 50002
T1 sequence (Q92769 whole entry): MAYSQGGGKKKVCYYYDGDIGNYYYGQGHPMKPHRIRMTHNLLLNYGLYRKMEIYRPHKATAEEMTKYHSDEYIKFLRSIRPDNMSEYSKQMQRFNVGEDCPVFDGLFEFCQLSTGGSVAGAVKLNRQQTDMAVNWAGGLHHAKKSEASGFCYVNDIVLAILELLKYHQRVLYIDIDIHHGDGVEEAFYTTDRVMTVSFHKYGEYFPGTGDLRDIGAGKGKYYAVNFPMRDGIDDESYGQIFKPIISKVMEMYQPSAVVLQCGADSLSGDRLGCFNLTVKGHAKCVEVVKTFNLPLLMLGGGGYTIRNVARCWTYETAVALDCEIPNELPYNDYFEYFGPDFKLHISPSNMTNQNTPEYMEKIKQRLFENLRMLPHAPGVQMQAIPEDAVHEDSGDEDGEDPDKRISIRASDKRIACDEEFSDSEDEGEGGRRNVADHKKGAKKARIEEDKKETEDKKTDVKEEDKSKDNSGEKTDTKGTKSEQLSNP

[2] = molecular target: T2, HDAC1 (Homo sapiens, UniProt Q13547); experiment: Recombinant HDAC µSPOT microarray binding assay;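 also: slides with spotted peptides incubated with six HDAC concentrations in HEPES buffer pH 7.4, spot intensities fitted by four-parameter logistic, EC50 as enzyme concentration giving half-maximal binding signal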
T2 construct: HDAC1 (full length, C-terminal His tag, C-terminal FLAG tag, BPS Bioscience, cat. #: 50051); FLAG (C); purchased BPS Bioscience 50051
T2 sequence (Q13547 whole entry): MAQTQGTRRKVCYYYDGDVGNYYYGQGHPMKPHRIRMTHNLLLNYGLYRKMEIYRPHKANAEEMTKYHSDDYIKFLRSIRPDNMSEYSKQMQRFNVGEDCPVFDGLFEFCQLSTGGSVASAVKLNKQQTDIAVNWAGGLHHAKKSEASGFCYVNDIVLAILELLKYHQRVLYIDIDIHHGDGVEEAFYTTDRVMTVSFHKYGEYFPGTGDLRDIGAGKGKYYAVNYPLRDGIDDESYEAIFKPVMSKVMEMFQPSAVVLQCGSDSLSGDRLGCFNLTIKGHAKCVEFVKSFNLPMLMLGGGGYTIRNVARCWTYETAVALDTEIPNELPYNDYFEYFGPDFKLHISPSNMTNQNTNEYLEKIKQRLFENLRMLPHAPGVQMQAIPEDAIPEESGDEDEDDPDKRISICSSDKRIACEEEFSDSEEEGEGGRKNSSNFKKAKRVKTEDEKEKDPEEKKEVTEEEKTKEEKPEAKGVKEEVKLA

[3] = molecular target: T3, HDAC8 (Homo sapiens, UniProt Q9BY41); experiment: HDAC inhibition assay (fluorogenic, Ac-Leu-Gly-Lys(Tfa)-AMC); assay type: biochemical; settings: for HDAC8 dose-response data (relative enzyme activity, replicate values), Fig. 6 + S. Fig. 10: two replicate columns per inhibitor; for HDAC8 dose-response data (relative enzyme activity), Fig. 6 + S. Fig. 10: duplicate columns
T3 construct: HDAC8 (full length, C-terminal His tag, BPS Bioscience, cat. #: 50008); purchased BPS Bioscience 50008
T3 sequence (Q9BY41 1-377): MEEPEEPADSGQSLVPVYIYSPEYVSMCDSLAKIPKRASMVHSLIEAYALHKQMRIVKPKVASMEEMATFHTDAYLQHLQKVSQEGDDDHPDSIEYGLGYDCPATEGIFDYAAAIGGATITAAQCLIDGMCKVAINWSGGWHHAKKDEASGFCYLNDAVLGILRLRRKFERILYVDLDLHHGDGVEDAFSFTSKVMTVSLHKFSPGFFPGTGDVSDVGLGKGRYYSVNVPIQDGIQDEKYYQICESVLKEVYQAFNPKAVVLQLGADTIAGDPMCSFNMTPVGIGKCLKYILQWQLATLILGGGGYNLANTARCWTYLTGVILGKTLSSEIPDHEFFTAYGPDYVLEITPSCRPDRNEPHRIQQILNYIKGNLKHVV

[4] = molecular target: T4, HDAC3/NCoR2 (Homo sapiens, UniProt O15379); experiment: HDAC inhibition assay (fluorogenic, Ac-Leu-Gly-Lys(Ac)-AMC); assay type: biochemical; settings: for HDAC3 dose-response data (relative enzyme activity), Fig. 6 + S. Fig. 10: duplicate columns
T4 construct: HDAC3/NCoR2 (full length, C-terminal His tag, NCoR2 N-terminal GST tag); purchased BPS Bioscience 50003
T4 sequence (O15379 whole entry): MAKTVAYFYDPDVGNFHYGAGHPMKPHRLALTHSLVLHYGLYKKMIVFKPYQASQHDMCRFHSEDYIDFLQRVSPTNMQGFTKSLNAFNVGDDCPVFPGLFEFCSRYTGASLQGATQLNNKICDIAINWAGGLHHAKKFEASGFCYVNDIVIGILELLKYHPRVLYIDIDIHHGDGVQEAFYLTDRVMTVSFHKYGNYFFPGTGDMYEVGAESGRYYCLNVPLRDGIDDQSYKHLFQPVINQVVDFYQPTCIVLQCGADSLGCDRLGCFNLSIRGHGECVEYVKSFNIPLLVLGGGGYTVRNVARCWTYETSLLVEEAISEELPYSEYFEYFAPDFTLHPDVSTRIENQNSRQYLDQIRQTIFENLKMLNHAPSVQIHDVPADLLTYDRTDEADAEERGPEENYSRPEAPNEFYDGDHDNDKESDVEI
T4 sequence (Q9Y618 389-480 partner limits assumed): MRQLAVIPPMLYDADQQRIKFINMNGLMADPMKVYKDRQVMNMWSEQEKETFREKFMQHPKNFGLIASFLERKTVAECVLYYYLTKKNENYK

What does the source list for `CC[C@H](C)[C@H](NC(=O)[C@H](CCC(=O)O)NC(=O)[C@H](CCCNC(=N)N)NC(=O)[C@H](CO)NC(=O)[C@@H](NC(=O)[C@@H](NC(=O)[C@@H](NC(=O)[C@H](CO)NC(=O)[C@H](CCCNC(=N)N)NC(=O)[C@H](CCCCCC(=O)NO)NC(=O)[C@H](CC(N)=O)NC(=O)[C@H](Cc1ccc(O)cc1)NC(=O)[C@H](Cc1c[nH]cn1)NC(C)=O)[C@@H](C)O)[C@@H](C)CC)[C@@H](C)O)C(=O)N[C@@H](CCC(N)=O)C(=O)N[C@H](C(=O)N[C@@H](C)C(=O)N[C@@H](Cc1c[nH]c2ccccc12)C(N)=O)[C@@H](C)O` [12a] (Ac-HYN[Asu](NHOH)RSTITSREIQTAW-NH2)?
HDAC2 dose-response data (relative enzyme activity), Fig. 6 + S. Fig. 10 ([1]; log[inhibitor(M)] -5): 3.067 and 2.914; HDAC2 dose-response data (relative enzyme activity), Fig. 6 + S. Fig. 10 ([1]; log[inhibitor(M)] -5.69897): 11.3787 and 10.2695; HDAC2 dose-response data (relative enzyme activity), Fig. 6 + S. Fig. 10 ([1]; log[inhibitor(M)] -7.79588): 90.7701 and 92.8679; HDAC2 dose-response data (relative enzyme activity), Fig. 6 + S. Fig. 10 ([1]; log[inhibitor(M)] -10,5850266520292*, whole line marked with asterisks): 102,18881* and 100,790249*; Ki ([1]; resynthesized peptide in solution, Cheng-Prusoff, n = 2): 0.0238 ± 0.0001 µM; EC50 [2]: > 0.0251 µM; Ki [3]: 0.672 ± 0.002 µM; HDAC8 dose-response data (relative enzyme activity, replicate values), Fig. 6 + S. Fig. 10 ([3]; Inhibitor conc [M] -8.49485 (log)): 96.596 and 95.5531; HDAC8 dose-response data (relative enzyme activity, replicate values), Fig. 6 + S. Fig. 10 ([3]; Inhibitor conc [M] -9.19382 (log)): 96.9206 and 97.7957; HDAC8 dose-response data (relative enzyme activity, replicate values), Fig. 6 + S. Fig. 10 ([3]; Inhibitor conc [M] given as -7.09691 (log)): 89.149 and 90.0695; HDAC8 dose-response data (relative enzyme activity, replicate values), Fig. 6 + S. Fig. 10 ([3]; Inhibitor conc [M] given as -7.79588 (log)): 96.5655 and 96.7922; HDAC8 dose-response data (relative enzyme activity, replicate values), Fig. 6 + S. Fig. 10 ([3]; Inhibitor conc [M] given as -9.89279 (log)): 97.4718 and 97.8478; HDAC8 dose-response data (relative enzyme activity, replicate values), Fig. 6 + S. Fig. 10 ([3]; Inhibitor conc [M] given as -10.585 (log)): 100,321515* and 100,605272*; HDAC8 dose-response data (relative enzyme activity), Fig. 6 + S. Fig. 10 ([3]; Inhibitor conc [M] -4.30103): 4.131 and 3.99; HDAC8 dose-response data (relative enzyme activity), Fig. 6 + S. Fig. 10 ([3]; Inhibitor conc [M] -5): 13.2204 and 13.7487; HDAC8 dose-response data (relative enzyme activity), Fig. 6 + S. Fig. 10 ([3]; Inhibitor conc [M] -5.69897): 34.8849 and 37.2156; HDAC8 dose-response data (relative enzyme activity), Fig. 6 + S. Fig. 10 ([3]; Inhibitor conc [M] -6.39794): 67.169 and 68.3219; Ki [4]: 0.0106 ± 0.0001 µM; HDAC3 dose-response data (relative enzyme activity), Fig. 6 + S. Fig. 10 ([4]; log[inhibitor(M)] -4.30103): 0.7368 and 0.5682; HDAC3 dose-response data (relative enzyme activity), Fig. 6 + S. Fig. 10 ([4]; log[inhibitor(M)] -5): 1.408 and 1.481; HDAC3 dose-response data (relative enzyme activity), Fig. 6 + S. Fig. 10 ([4]; log[inhibitor(M)] -5.69897): 5.267 and 4.363; HDAC3 dose-response data (relative enzyme activity), Fig. 6 + S. Fig. 10 ([4]; log[inhibitor(M)] -6.39794): 16.4324 and 13.9407; HDAC3 dose-response data (relative enzyme activity), Fig. 6 + S. Fig. 10 ([4]; log[inhibitor(M)] -7.09691): 38.5352 and 35.6199; HDAC3 dose-response data (relative enzyme activity), Fig. 6 + S. Fig. 10 ([4]; log[inhibitor(M)] -7.79588): 73.2464 and 64.9902; HDAC3 dose-response data (relative enzyme activity), Fig. 6 + S. Fig. 10 ([4]; log[inhibitor(M)] -8.49485): 93.6652 and 87.0389; HDAC3 dose-response data (relative enzyme activity), Fig. 6 + S. Fig. 10 ([4]; log[inhibitor(M)] -9.19382): 96.2351 and 93.241
